{
  "source": "paper PMC10066720",
  "about": "(Journal of the American Chemical Society, 2022)",
  "type_in_all_cases": "biochemical",
  "key": {"[1]": {"target": "T1, TEM-1 β-lactamase A237R (Escherichia coli, UniProt P62593, A235R)", "test": "AVB covalent inhibition kinetics", "conditions": "A237R TEM-1"}, "[2]": {"target": "T2, TEM-1 β-lactamase A237W (Escherichia coli, UniProt P62593, A235W)", "test": "AVB covalent inhibition kinetics", "conditions": "A237W TEM-1"}, "[3]": {"target": "T3, TEM-1 β-lactamase A237Y (Escherichia coli, UniProt P62593, A235Y)", "test": "AVB covalent inhibition kinetics", "conditions": "A237Y TEM-1"}, "[4]": {"target": "T4, TEM-1 β-lactamase A237Y^e (ester) (Escherichia coli, UniProt P62593, A235Y)", "test": "AVB covalent inhibition kinetics", "conditions": "A237Y^e (ester) TEM-1"}, "[5]": {"system": "TEM-1 β-lactamase A237Y^e (ester)", "test": "AVB covalent inhibition kinetics", "conditions": "A237Y^e compared with A237Y"}, "[6]": {"target": "T5, TEM-1 β-lactamase A237E (Escherichia coli, UniProt P62593, A235E)", "test": "AVB covalent inhibition kinetics", "conditions": "A237E TEM-1"}, "[7]": {"target": "T6, TEM-1 β-lactamase WT (Escherichia coli, UniProt P62593)", "test": "AVB covalent inhibition kinetics"}, "[8]": {"target": "T5, TEM-1 β-lactamase A237E", "test": "PenG acylation kinetics", "conditions": "A237E TEM-1; median [68.25% confidence interval]"}, "[9]": {"target": "T3, TEM-1 β-lactamase A237Y", "test": "PenG acylation kinetics", "conditions": "A237Y TEM-1; median [68.25% confidence interval]"}, "[10]": {"target": "T4, TEM-1 β-lactamase A237Y^e (ester)", "test": "PenG acylation kinetics", "conditions": "A237Y^e (ester) TEM-1; median [68.25% confidence interval]"}, "[11]": {"target": "T1, TEM-1 β-lactamase A237R", "test": "PenG acylation kinetics", "conditions": "A237R TEM-1; median [68.25% confidence interval]"}, "[12]": {"target": "T2, TEM-1 β-lactamase A237W", "test": "PenG acylation kinetics", "conditions": "A237W TEM-1; median [68.25% confidence interval]"}, "[13]": {"target": "T6, TEM-1 β-lactamase WT", "test": "PenG acylation kinetics"}},
  "data": [
    {"smiles": "NC(=O)[C@@H]1CC[C@@H]2CN1C(=O)N2OS(=O)(=O)O", "note": "[AVB, avibactam]", "values": [
      {"measurement": "AVB carbamylation rate, kcbm", "setting": "[1]", "value": "3.63 ± 0.03", "unit": "s⁻¹"},
      {"measurement": "AVB recyclization rate, krec", "setting": "[1]", "value": "(6.2 ± 0.9) × 10^−4 s^−1"},
      {"measurement": "AVB carbamylation rate, kcbm", "setting": "[2]", "value": "3.31 ± 0.05", "unit": "s⁻¹"},
      {"measurement": "AVB recyclization rate, krec", "setting": "[2]", "value": "(6.7 ± 1.3) × 10^−4 s^−1"},
      {"measurement": "AVB carbamylation rate, kcbm", "setting": "[3]", "value": "6.19 ± 0.08", "unit": "s⁻¹"},
      {"measurement": "AVB recyclization rate, krec", "setting": "[3]", "value": "(1.7 ± 0.3) × 10^−3 s^−1"},
      {"measurement": "AVB carbamylation rate, kcbm", "setting": "[4]", "value": "(1.8 ± 0.1) × 10^−3 s^−1"},
      {"measurement": "AVB recyclization rate, krec", "setting": "[4]", "value": "(3.4 ± 0.1) × 10^−7 s^−1"},
      {"measurement": "decrease in kcbm, factor", "setting": "[5]", "value": "3.5 × 10^3"},
      {"measurement": "decrease in krec, factor", "setting": "[5]", "value": "5.0 × 10^3"},
      {"measurement": "AVB carbamylation rate, kcbm", "setting": "[6]", "value": "4.63 ± 0.23", "unit": "s⁻¹"},
      {"measurement": "AVB recyclization rate, krec", "setting": "[6]", "value": "(8.7 ± 1.5) × 10^−5 s^−1"},
      {"measurement": "AVB carbamylation rate, kcbm", "setting": "[7]; WT TEM-1", "value": "23.1 ± 0.2", "unit": "s⁻¹"},
      {"measurement": "AVB recyclization rate, krec", "setting": "[7]; WT TEM-1", "value": "(2.3 ± 0.3) × 10^−4 s^−1"},
      {"measurement": "enhancement of kcbm by the active site electric field", "setting": "[7]; WT TEM·AVB, field −150 MV/cm", "value": "7.5 orders of magnitude"},
      {"measurement": "acceleration of recyclization by the active site electric field", "setting": "[7]; WT TEM−AVB, field −97 MV/cm", "value": "4.9 orders of magnitude"}
    ]},
    {"smiles": "CC1(C)S[C@@H]2[C@H](NC(=O)Cc3ccccc3)C(=O)N2[C@H]1C(=O)O", "note": "[PenG, penicillin G]", "values": [
      {"measurement": "PenG acylation rate, kac", "setting": "[8]", "value": "5857 [5288, 6012] s^−1"},
      {"measurement": "PenG acylation rate, kac", "setting": "[9]", "value": "2838 [2740, 2940] s^−1"},
      {"measurement": "PenG acylation rate, kac", "setting": "[10]", "value": "86.1 [69.2, 97.0] s^−1"},
      {"measurement": "PenG acylation rate, kac", "setting": "[11]", "value": "3265 [3137, 3396] s^−1"},
      {"measurement": "PenG acylation rate, kac", "setting": "[12]", "value": "1390 [1366, 1415] s^−1"},
      {"measurement": "PenG acylation rate, kac", "setting": "[13]; WT TEM-1, median [68.25% confidence interval]", "value": "4941 [4784, 5086] s^−1"},
      {"measurement": "enhancement of kac by the active site electric field", "setting": "[13]; WT TEM·PenG, field −171 MV/cm", "value": "8.6 orders of magnitude"}
    ]}
  ]
}
